molecular target: T1, human 5-HT4(b) receptor (Homo sapiens, UniProt Q13639); assay: 5-HT4(b) agonist assay (cAMP accumulation); format: cell-based; settings: CHO-K1 cells overexpressing full-length human 5-HT4(b) receptor; cAMP accumulation after 30 minutes at room temperature; 1 μM 5-HT as 100% activity
T1 construct: overexpressing the full-length human 5-HT4(b) receptor with an N-terminal FLAG tag; FLAG (N); host or cells: CHO-K1
Protocol: One may determine the activity of the compounds of Formula 1 using a variety of methods, including in vitro and in vivo methods. The ability of the example compounds to activate the 5-HT4(b) receptor may be determined using the following assay.
Chinese hamster ovary (CHO-K1) cells overexpressing the full-length human 5-HT4(b) receptor with an N-terminal FLAG tag (Multispan Inc, Hayward, CA) are cultured per the manufacturer's protocol in 1:1 DMEM/F12 (Thermo Fisher, Waltham, MA) with 10% fetal bovine serum (GE Healthcare, Pittsburgh, PA) and 10 μg/mL puromycin (Thermo Fisher, Waltham, MA), and stored in frozen aliquots to be used as assay ready cells. On the day of the assay, cells are removed from frozen storage, washed two times in 1× Kreb's Ringer Buffer (Zenbio, Research Triangle Park, NC), and re-suspended to a concentration of 4×10^6 cells/mL in 1× Kreb's Ringer Buffer. Test compound (50 nL) in 100% DMSO is acoustically dispensed in low volume, white, 384-well polypropylene plates (Corning, Tewksbury, MA), followed by the addition of 4×10^4 cells per well in a total volume of 10 μL. Cells are incubated with test compound for 30 minutes at room temperature in the dark, and cAMP accumulation is measured using the Cisbio HiRange cAMP assay kit (Bedford, MA) per the manufacturer's protocol. Anti-cAMP antibody and d2-cAMP tracer reagents diluted in lysis/detection buffer are incubated in the dark for 1 hour, and results are measured on a Pherastar plate reader (BMG Labtech, Ortenberg, Germany). Data are normalized using 1 μM 5-HT (Sigma Aldrich, St. Louis, MO) as 100% activity, and DMSO alone as 0% activity.
The ability of the example compounds to activate the 5-HT4(b) receptor was evaluated using the assay described in the Biological Activity section. Table 1, below, lists EC50 from the 5-HT4(b) agonist assay for each of the example compounds, where smaller EC50 values represent higher potency.

T1 sequence (Q13639 whole entry): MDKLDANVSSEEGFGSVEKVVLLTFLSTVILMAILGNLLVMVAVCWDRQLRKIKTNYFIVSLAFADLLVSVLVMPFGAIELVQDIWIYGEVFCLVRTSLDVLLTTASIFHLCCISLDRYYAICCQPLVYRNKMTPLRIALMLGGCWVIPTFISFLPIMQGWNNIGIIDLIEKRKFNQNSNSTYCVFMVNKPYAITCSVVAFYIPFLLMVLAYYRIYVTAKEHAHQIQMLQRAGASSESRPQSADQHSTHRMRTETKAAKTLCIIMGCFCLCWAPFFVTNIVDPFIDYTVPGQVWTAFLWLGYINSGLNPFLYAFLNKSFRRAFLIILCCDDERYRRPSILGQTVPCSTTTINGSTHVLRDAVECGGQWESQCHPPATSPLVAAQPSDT

In order of rising EC50:
1. Nc1c(Cl)cc(C(=O)NCC2CCN(CC3CCN(C(=O)CCCCCCC(=O)NC[C@H](O)[C@@H](O)[C@H](O)[C@H](O)CO)CC3)CC2)c2c1CCO2 [Example 40, 4-amino-5-chloro-N-((1-((1-(8-oxo-8-(((2S,3R,4R,5R)-2,3,4,5,6-pentahydroxyhexyl)amino)octanoyl)piperidin-4-yl)methyl)piperidin-4-yl)methyl)-2,3-dihydrobenzofuran-7-carboxamide]  0.002 µM
2. Nc1c(Cl)cc(C(=O)NC2CCN(CCCCCC(=O)N[C@@H]3CCCN(CCCCCCCC(=O)NC[C@H](O)[C@@H](O)[C@H](O)[C@H](O)CO)C3)CC2)c2c1CCO2 [Example 28, 4-amino-5-chloro-N-(1-(6-oxo-6-(((R)-1-(8-oxo-8-(((2S,3R,4R,5R)-2,3,4,5,6-pentahydroxyhexyl)amino)octyl)piperidin-3-yl)amino)hexyl)piperidin-4-yl)-2,3-dihydrobenzofuran-7-carboxamide]  0.0038 µM
3. COc1cc(N)c(Cl)cc1C(=O)N[C@@H]1CCN(CCCCCC(=O)NC2CCN(CCCCCCCC(=O)NC[C@H](O)[C@@H](O)[C@H](O)[C@H](O)CO)CC2)C[C@@H]1OC [Example 8, 4-amino-5-chloro-2-methoxy-N-((3S,4R)-3-methoxy-1-(6-oxo-6-((1-(8-oxo-8-(((2S,3R,4R,5R)-2,3,4,5,6-pentahydroxyhexyl)amino)octyl)piperidin-4-yl)amino)hexyl)piperidin-4-yl)benzamide]  0.0096 µM
4. CO[C@H]1CN(CCCCCC(=O)NCCCCCC(=O)NC[C@H](O)[C@@H](O)[C@H](O)[C@H](O)CO)CC[C@H]1NC(=O)c1cc(Cl)c(N)c2c1OCC2 [Example 45, 4-amino-5-chloro-N-((3S,4R)-3-methoxy-1-(6-oxo-6-((6-oxo-6-(((2S,3R,4R,5R)-2,3,4,5,6-pentahydroxyhexyl)amino)hexyl)amino)hexyl)piperidin-4-yl)-2,3-dihydrobenzofuran-7-carboxamide]  0.0121 µM
5. COc1cc(N)c(Cl)cc1C(=O)N[C@@H]1CCN(CCCCCC(=O)N[C@@H]2CCCN(CCCCCC(=O)NC[C@H](O)[C@@H](O)[C@H](O)[C@H](O)CO)C2)C[C@@H]1OC [Example 13, 4-amino-5-chloro-2-methoxy-N-((3S,4R)-3-methoxy-1-(6-oxo-6-(((R)-1-(6-oxo-6-(((2S,3R,4R,5R)-2,3,4,5,6-pentahydroxyhexyl)amino)hexyl)piperidin-3-yl)amino)hexyl)piperidin-4-yl)benzamide]  0.0129 µM
6. COc1cc(N)c(Cl)cc1C(=O)N[C@@H]1CCN(CCCCCC(=O)NCCCCCCCC(=O)NC[C@H](O)[C@@H](O)[C@H](O)[C@H](O)CO)C[C@@H]1OC [Example 2, 4-amino-5-chloro-2-methoxy-N-((3S,4R)-3-methoxy-1-(6-oxo-6-((8-oxo-8-(((2S,3R,4R,5R)-2,3,4,5,6-pentahydroxyhexyl)amino)octyl)amino)hexyl)piperidin-4-yl)benzamide]  0.0214 µM
7. Nc1c(Cl)cc(C(=O)NC2CCN(CCCCCC(=O)NCCCCCCCC(=O)NC[C@H](O)[C@@H](O)[C@H](O)[C@H](O)CO)CC2)c2c1CCO2 [Example 32, 4-amino-5-chloro-N-(1-(6-oxo-6-((8-oxo-8-(((2S,3R,4R,5R)-2,3,4,5,6-pentahydroxyhexyl)amino)octyl)amino)hexyl)piperidin-4-yl)-2,3-dihydrobenzofuran-7-carboxamide]  0.023 µM
8. COc1cc(N)c(Cl)cc1C(=O)N[C@@H]1CCN(CCCCCC(=O)NCCOCCOCCC(=O)NC[C@H](O)[C@@H](O)[C@H](O)[C@H](O)CO)C[C@@H]1OC [Example 7, 4-amino-5-chloro-2-methoxy-N-((3S,4R)-3-methoxy-1-((19S,20R,21R,22R)-19,20,21,22,23-pentahydroxy-6,16-dioxo-10,13-dioxa-7,17-diazatricosyl)piperidin-4-yl)benzamide]  0.0234 µM

Reference: US12653815B2, “Luminally-acting N-(piperidin-4-yl)benzamide derivatives” (Takeda Pharmaceutical Company Limited, priority 2020, dated 2026)
